# From patent US20050058733A1, “Health food products” (Daicho Kikaku Incorporated Company, priority 2001, published 2005)
# Columns and labels:
# [1] = test system: patients with muscle disorders that occurred with aging; test: tablets given to aged patients with muscle disorders (walking difficulties, proctoptosia, backaches, limb pains); format: in vivo, human; settings: single regular dose of drugs admixed with one of the substances, without curcumin
# Source text: In Western medicine, it has been understood that proctoptosia and leg, lumbus and arm aches are attributable only to hematogenous disorders and resultant inflammation at local sites. […] Thus, it can be understood that these disorders are attributed to insufficient communication of brain commands to local sites and therefore the hematogenous disorders and onset of inflammation are problems caused by abnormal motions of muscles due to incomplete communication of brain commands.
# [2] = test system: adrenaline secretion; test: animal experiments using mice: secretomotory action on adrenaline, seen as blood glucose elevation; format: in vivo
# Source text: No studies have been conducted on the efficacy of curcumin, zingerone, or shogaol on the stimulation of adrenaline secretion.
SMILES,"amelioration of proctoptosia and leg, lumbus and arm aches [1]",blood glucose levels (secretomotory action on adrenaline) [2]
C[C@H](CCC(=O)O)[C@H]1CC[C@H]2[C@@H]3[C@H](O)C[C@@H]4C[C@H](O)CC[C@]4(C)[C@H]3C[C@H](O)[C@]12C [cholic acid],not significantly ameliorated,–
COc1cc(/C=C/C(=O)/C=C(O)/C=C/c2ccc(O)c(OC)c2)ccc1O [curcumin],–,remarkably elevated
"C[C@H](CC[C@@H](O)C(CO)CO)C1CCC2C3C(C[C@H](O)[C@@]21C)[C@@]1(C)CC[C@@H](O)CC1C[C@H]3O (some centres unmarked) [scymnol, Scymnol]",not significantly ameliorated,–
"CCCCC/C=C/C(=O)CCc1ccc(O)c(OC)c1 [shogaol, (6)-shogaol]",–,remarkably elevated
COc1cc(CCC(C)=O)ccc1O [zingerone],–,remarkably elevated
